Assay [1] relates to brains, heart, liver, muscle, and DRG of the NHPs. Kind of assay: Maturation of TTM-001 and TTM-002 capsids, NGS enrichment in NHP tissues. In kind it is in vivo. The conditions noted are these: relative to AAV9 control. The essentials: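 Variants carry mutations within and flanking the loop IV peptide insert: positions 450–466 were triplet-randomized, while positions 449–466 received low-frequency point mutations. The combined pool went into two NHPs, and each peptide was scored by NGS enrichment ratio against AAV9.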

Assay [2] concerns brain. Kind of assay: Matured TTM-001 and TTM-002 variants, NGS enrichment in mouse brain. The class given is in vivo, mice. The conditions noted are these: relative to AAV9 control.
[3] abbreviates: NGS fold-enrichment, DRG of NHPs.
Where [4] appears, read: NGS fold-enrichment, RNA, brain of NHPs.
[5] abbreviates: NGS fold-enrichment, heart of NHPs.
The mark [6] stands for this setting: NGS fold-enrichment, liver DNA of NHPs.
[7] abbreviates: NGS fold-enrichment, liver RNA of NHPs.
Where [8] appears, read: NGS fold-enrichment, muscle of NHPs.
[9] abbreviates: NGS fold-enrichment, brain of mice.
The mark [10] stands for this setting: NGS fold-enrichment of RNA, NHP brain.
[11] abbreviates: NGS fold-enrichment, NHP liver DNA.
Where [12] appears, read: NGS fold-enrichment, NHP liver RNA.
Setting [13] is: NGS fold-enrichment, NHP muscle.
Setting [14] is: NGS fold-enrichment, mouse brain.
Where [15] appears, read: NGS fold-enrichment of matured AAV capsid variants, NHP brain, RNA.

KTINGTGSPHSKAQNQQM: the “Fold Enrichment relative to AAV9, DRG (NHP)” value in assay [1] (setting [3]) is recorded as 0.000 fold. Also, in assay [1] (setting [4]), the “Fold Enrichment relative to AAV9, Brain (NHP)” value came out at 62.151 fold. Further, in assay [1] (setting [5]), the “Fold Enrichment relative to AAV9, Heart (NHP)” value is 0.000 fold. In assay [1] (setting [6]), the “Fold Enrichment relative to AAV9, Liver DNA (NHP)” value was determined as 0.000 fold. The “Fold Enrichment relative to AAV9, Liver RNA (NHP)” value in assay [1] (setting [7]) turned out to be 0.000 fold. Moreover, in assay [1] (setting [8]), the “Fold Enrichment relative to AAV9, Muscle (NHP)” value turned out to be 0.000 fold. Also, the “Fold Enrichment relative to AAV9, Brain (Mouse)” value in assay [2] (setting [9]) was found to be 62.376 fold.
In the case of KTINGHDSPHKSNAWQQT, the “Fold Enrichment relative to AAV9, Brain (NHP)” value in assay [1] (setting [10]) was determined as 84.825 fold. The “Fold Enrichment relative to AAV9, DRG (NHP)” value in assay [1] (NGS fold-enrichment, NHP DRG) was 0.000 fold. The “Fold Enrichment relative to AAV9, Heart (NHP)” value in assay [1] (NGS fold-enrichment, NHP heart) came to 0.016 fold. The “Fold Enrichment relative to AAV9, Liver DNA (NHP)” value in assay [1] (setting [11]) is 0.132 fold. Moreover, the “Fold Enrichment relative to AAV9, Liver RNA (NHP)” value in assay [1] (setting [12]) was 0.000 fold. For the same sequence, the “Fold Enrichment relative to AAV9, Muscle (NHP)” value in assay [1] (setting [13]) stood at 0.000 fold. For the same sequence, the “Fold Enrichment relative to AAV9, Brain (Mouse)” value in assay [2] (setting [14]) came to 15.788 fold.
On to KTIPAIGSPHSKAQNQQT, for which the “Fold Enrichment relative to AAV9, Brain (NHP)” value in assay [1] (setting [15]) came out at 52.346 fold. The “Fold Enrichment relative to AAV9, DRG (NHP)” value in assay [1] (NHP DRG) came to 0.000 fold. In assay [1] (NHP heart), the “Fold Enrichment relative to AAV9, Heart (NHP)” value is listed as 0.009 fold. Besides, the “Fold Enrichment relative to AAV9, Liver DNA (NHP)” value in assay [1] (NHP liver, DNA) stood at 0.134 fold. Also, in assay [1] (NHP liver, RNA), the “Fold Enrichment relative to AAV9, Liver RNA (NHP)” value is given as 0.034 fold. In assay [1] (NHP muscle), the “Fold Enrichment relative to AAV9, Muscle (NHP)” value is given as 0.000 fold. Besides, the “Fold Enrichment relative to AAV9, Brain (Mouse)” value in assay [2] (mouse brain) came out at 51.949 fold.
As to KTFNGSGSPHSKAQGQQT, the “Fold Enrichment relative to AAV9, Brain (NHP)” value in assay [1] (setting [10]) and in assay [1] (setting [4]) was 99.253 fold throughout. Besides, the “Fold Enrichment relative to AAV9, DRG (NHP)” value in assay [1] (setting [3]) was 0.000 fold; in assay [1] (NGS fold-enrichment, NHP DRG), 0.000 fold. For the same sequence, the “Fold Enrichment relative to AAV9, Heart (NHP)” value in assay [1] (NGS fold-enrichment, NHP heart) was determined as 0.208 fold; in assay [1] (setting [5]) it was 0.208 fold. Also, the “Fold Enrichment relative to AAV9, Liver DNA (NHP)” value in assay [1] (setting [11]) and in assay [1] (setting [6]) was 0.099 fold in each case. Moreover, the “Fold Enrichment relative to AAV9, Liver RNA (NHP)” value in assay [1] (setting [12]) and in assay [1] (setting [7]) was 0.128 fold throughout. Also, the “Fold Enrichment relative to AAV9, Muscle (NHP)” value in assay [1] (setting [13]) and in assay [1] (setting [8]) was 0.000 fold each time. Also, the “Fold Enrichment relative to AAV9, Brain (Mouse)” value in assay [2] (setting [9]) and in assay [2] (setting [14]) was 81.459 fold each time.
Turning to KTINGHDSPHKTGQNQQK, the “Fold Enrichment relative to AAV9, Brain (NHP)” value in assay [1] (setting [10]) is 77.562 fold. Besides, the “Fold Enrichment relative to AAV9, DRG (NHP)” value in assay [1] (NGS fold-enrichment, NHP DRG) is listed as 0.000 fold. Further, in assay [1] (NGS fold-enrichment, NHP heart), the “Fold Enrichment relative to AAV9, Heart (NHP)” value was determined as 1.056 fold. The “Fold Enrichment relative to AAV9, Liver DNA (NHP)” value in assay [1] (setting [11]) was determined as 0.000 fold. Further, in assay [1] (setting [12]), the “Fold Enrichment relative to AAV9, Liver RNA (NHP)” value is listed as 0.000 fold. In addition, the “Fold Enrichment relative to AAV9, Muscle (NHP)” value in assay [1] (setting [13]) is 0.000 fold. Further, the “Fold Enrichment relative to AAV9, Brain (Mouse)” value in assay [2] (setting [14]) is 6.379 fold.
As for KTINGSGSPHSKRMEQQT, the “Fold Enrichment relative to AAV9, Brain (NHP)” value in assay [1] (setting [15]) is on record as 50.177 fold. Further, in assay [1] (NHP DRG), the “Fold Enrichment relative to AAV9, DRG (NHP)” value came out at 0.000 fold. Further, in assay [1] (NHP heart), the “Fold Enrichment relative to AAV9, Heart (NHP)” value is on record as 0.000 fold. Also, the “Fold Enrichment relative to AAV9, Liver DNA (NHP)” value in assay [1] (NHP liver, DNA) is on record as 0.208 fold. Besides, in assay [1] (NHP liver, RNA), the “Fold Enrichment relative to AAV9, Liver RNA (NHP)” value amounted to 1.327 fold. Further, in assay [1] (NHP muscle), the “Fold Enrichment relative to AAV9, Muscle (NHP)” value was 0.000 fold. Also, the “Fold Enrichment relative to AAV9, Brain (Mouse)” value in assay [2] (mouse brain) is recorded as 81.769 fold.
Regarding KAINGSGSPHSKAQDKQT, the “Fold Enrichment relative to AAV9, Brain (NHP)” value in assay [1] (setting [15]) was 54.452 fold. In addition, in assay [1] (NHP DRG), the “Fold Enrichment relative to AAV9, DRG (NHP)” value was 0.000 fold. For the same sequence, in assay [1] (NHP heart), the “Fold Enrichment relative to AAV9, Heart (NHP)” value was determined as 0.000 fold. The “Fold Enrichment relative to AAV9, Liver DNA (NHP)” value in assay [1] (NHP liver, DNA) is on record as 0.223 fold. The “Fold Enrichment relative to AAV9, Liver RNA (NHP)” value in assay [1] (NHP liver, RNA) stood at 0.044 fold. Moreover, in assay [1] (NHP muscle), the “Fold Enrichment relative to AAV9, Muscle (NHP)” value is reported as 0.057 fold. In addition, the “Fold Enrichment relative to AAV9, Brain (Mouse)” value in assay [2] (mouse brain) is reported as 56.004 fold.
Take KTSNGSGSPHSKAHYQQT: the “Fold Enrichment relative to AAV9, Brain (NHP)” value in assay [1] (setting [15]) was 54.414 fold. Further, the “Fold Enrichment relative to AAV9, DRG (NHP)” value in assay [1] (NHP DRG) is given as 0.000 fold. The “Fold Enrichment relative to AAV9, Heart (NHP)” value in assay [1] (NHP heart) came to 0.251 fold. In addition, in assay [1] (NHP liver, DNA), the “Fold Enrichment relative to AAV9, Liver DNA (NHP)” value worked out at 0.204 fold. Further, the “Fold Enrichment relative to AAV9, Liver RNA (NHP)” value in assay [1] (NHP liver, RNA) is on record as 0.249 fold. Further, in assay [1] (NHP muscle), the “Fold Enrichment relative to AAV9, Muscle (NHP)” value stood at 0.000 fold. For the same sequence, the “Fold Enrichment relative to AAV9, Brain (Mouse)” value in assay [2] (mouse brain) was 54.162 fold.
On to KTINGSGSSHSKAQNQQT, for which the “Fold Enrichment relative to AAV9, Brain (NHP)” value in assay [1] (setting [15]) is reported as 54.292 fold. Moreover, in assay [1] (NHP DRG), the “Fold Enrichment relative to AAV9, DRG (NHP)” value was found to be 1.709 fold. The “Fold Enrichment relative to AAV9, Heart (NHP)” value in assay [1] (NHP heart) turned out to be 1.870 fold. Besides, the “Fold Enrichment relative to AAV9, Liver DNA (NHP)” value in assay [1] (NHP liver, DNA) is listed as 0.458 fold. Further, in assay [1] (NHP liver, RNA), the “Fold Enrichment relative to AAV9, Liver RNA (NHP)” value was 1.075 fold. Besides, in assay [1] (NHP muscle), the “Fold Enrichment relative to AAV9, Muscle (NHP)” value is on record as 1.287 fold. The “Fold Enrichment relative to AAV9, Brain (Mouse)” value in assay [2] (mouse brain) was found to be 67.731 fold.
With KTVNGGGSPHSKSQNQQT, the “Fold Enrichment relative to AAV9, Brain (NHP)” value in assay [1] (setting [15]) is 56.114 fold. Further, in assay [1] (NHP DRG), the “Fold Enrichment relative to AAV9, DRG (NHP)” value is given as 0.116 fold. In assay [1] (NHP heart), the “Fold Enrichment relative to AAV9, Heart (NHP)” value came to 0.000 fold. The “Fold Enrichment relative to AAV9, Liver DNA (NHP)” value in assay [1] (NHP liver, DNA) is 0.040 fold. For the same sequence, the “Fold Enrichment relative to AAV9, Liver RNA (NHP)” value in assay [1] (NHP liver, RNA) was determined as 0.000 fold. Besides, the “Fold Enrichment relative to AAV9, Muscle (NHP)” value in assay [1] (NHP muscle) is 0.000 fold. The “Fold Enrichment relative to AAV9, Brain (Mouse)” value in assay [2] (mouse brain) is recorded as 170.548 fold.
With KTSNGYDSPHKSGQKQQT, in assay [1] (setting [10]), the “Fold Enrichment relative to AAV9, Brain (NHP)” value is reported as 77.001 fold. The “Fold Enrichment relative to AAV9, DRG (NHP)” value in assay [1] (NGS fold-enrichment, NHP DRG) turned out to be 0.032 fold. In addition, the “Fold Enrichment relative to AAV9, Heart (NHP)” value in assay [1] (NGS fold-enrichment, NHP heart) was 0.286 fold. Further, in assay [1] (setting [11]), the “Fold Enrichment relative to AAV9, Liver DNA (NHP)” value turned out to be 0.016 fold. Moreover, the “Fold Enrichment relative to AAV9, Liver RNA (NHP)” value in assay [1] (setting [12]) was determined as 0.000 fold. The “Fold Enrichment relative to AAV9, Muscle (NHP)” value in assay [1] (setting [13]) is listed as 0.000 fold. Also, the “Fold Enrichment relative to AAV9, Brain (Mouse)” value in assay [2] (setting [14]) is recorded as 8.813 fold.
As to KSDQGSGSPHSKAQNQQT, the “Fold Enrichment relative to AAV9, Brain (NHP)” value in assay [1] (setting [10]) and in assay [1] (setting [4]) was 80.076 fold throughout. Also, the “Fold Enrichment relative to AAV9, DRG (NHP)” value in assay [1] (setting [3]) is reported as 0.000 fold; in assay [1] (NGS fold-enrichment, NHP DRG), 0.000 fold. The “Fold Enrichment relative to AAV9, Heart (NHP)” value in assay [1] (NGS fold-enrichment, NHP heart) was 0.000 fold; in assay [1] (setting [5]) it was 0.000 fold. Also, the “Fold Enrichment relative to AAV9, Liver DNA (NHP)” value in assay [1] (setting [11]) and in assay [1] (setting [6]) was 0.124 fold in each case. Also, the “Fold Enrichment relative to AAV9, Liver RNA (NHP)” value in assay [1] (setting [12]) and in assay [1] (setting [7]) was 0.993 fold in each case. Moreover, the “Fold Enrichment relative to AAV9, Muscle (NHP)” value in assay [1] (setting [13]) and in assay [1] (setting [8]) was 0.000 fold in each case. Besides, the “Fold Enrichment relative to AAV9, Brain (Mouse)” value in assay [2] (setting [9]) and in assay [2] (setting [14]) was 151.911 fold throughout.
